Results reported in PubChem BioAssay AID248 (DTP/NCI, 2004).
“And” between values parts separate entries of the source, which are not always exact repeats. Equal entries are not always repeated. Inconclusive results and toxic doses are left out. No stated cut-off is given here; in the data, active means T/C of 150% or more; inactive means T/C below 125%.

Test system: L1210 leukemia ip in BDF1 mice, survival T/C
Assay: NCI In Vivo Anticancer Drug Screen. Data for tumor model L1210 Leukemia (intraperitoneal) in B6D2F1 (BDF1) mice
Conditions: endpoint: mean survival time, higher = longer survival
Procedure, shortened: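 Transplantable tumor model; survival measured in treated vs vehicle control mice. Value = treated/control.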

[1] = dose: 100.0 mg/kg/injection, schedule: Q01DX009 (ip), vehicle: saline
[2] = dose: 100.0 mg/kg/injection, schedule: Q04DX003 (ip), vehicle: saline
[3] = dose: 100.0 mg/kg/injection, schedule: Q04DX003 (ip), vehicle: Klucel (hydroxypropylcellulose) (HPC)
[4] = dose: 200.0 mg/kg/injection, schedule: Q01DX009 (ip), vehicle: saline
[5] = dose: 200.0 mg/kg/injection, schedule: Q04DX003 (ip), vehicle: Klucel (hydroxypropylcellulose) (HPC)
[6] = dose: 200.0 mg/kg/injection, schedule: Q04DX003 (ip), vehicle: saline
[7] = dose: 400.0 mg/kg/injection, schedule: Q04DX003 (ip), vehicle: Klucel (hydroxypropylcellulose) (HPC)
[8] = dose: 400.0 mg/kg/injection, schedule: Q04DX003 (ip), vehicle: saline
[9] = dose: 100.0 mg/kg/injection, schedule: Q01DX001 (ip), vehicle: carboxymethylcellulose (CMC)
[10] = dose: 200.0 mg/kg/injection, schedule: Q01DX001 (ip), vehicle: carboxymethylcellulose (CMC)
[11] = dose: 400.0 mg/kg/injection, schedule: Q01DX001 (ip), vehicle: carboxymethylcellulose (CMC)
[12] = dose: 100.0 mg/kg/injection, schedule: Q01DX009 (ip), vehicle: Klucel (hydroxypropylcellulose) (HPC)
[13] = dose: 200.0 mg/kg/injection, schedule: Q01DX009 (ip), vehicle: Klucel (hydroxypropylcellulose) (HPC)
[14] = dose: 400.0 mg/kg/injection, schedule: Q01DX009 (ip), vehicle: Klucel (hydroxypropylcellulose) (HPC)
[15] = dose: 100.0 mg/kg/injection, schedule: Q01DX001 (ip), vehicle: saline
[16] = dose: 200.0 mg/kg/injection, schedule: Q01DX001 (ip), vehicle: saline
[17] = dose: 400.0 mg/kg/injection, schedule: Q01DX001 (ip), vehicle: saline
[18] = dose: 100.0 mg/kg/injection, schedule: Q01DX009 (ip), vehicle: saline with Tween-80
[19] = dose: 200.0 mg/kg/injection, schedule: Q01DX009 (ip), vehicle: saline with Tween-80
[20] = dose: 50.0 mg/kg/injection, schedule: Q01DX009 (ip), vehicle: saline with Tween-80

Measured: T/C

CCN(CCCl)CCNc1c2ccccc2nc2c1ccc1ccccc12
inactive: dose: 1.25 mg/kg/injection, schedule: Q01DX005 (ip), vehicle: saline 116 % of control | dose: 2.5 mg/kg/injection, schedule: Q01DX005 (ip), vehicle: saline 115 % of control | dose: 5.0 mg/kg/injection, schedule: Q01DX005 (ip), vehicle: saline 107 % of control

Cc1ccc(NC(=O)N(CCCl)N=O)c(C)c1
inactive: dose: 100.0 mg/kg/injection, schedule: Q01DX001 (ip), vehicle: other 101 % of control
active: dose: 10.0 mg/kg/injection, schedule: Q01DX009 (ip), vehicle: other 180 % of control | dose: 16.0 mg/kg/injection, schedule: Q01DX009 (ip), vehicle: other 241 % of control | dose: 24.0 mg/kg/injection, schedule: Q01DX009 (ip), vehicle: other 158 % of control | dose: 25.0 mg/kg/injection, schedule: Q01DX001 (ip), vehicle: other 153 % of control | dose: 50.0 mg/kg/injection, schedule: Q01DX001 (ip), vehicle: other 158 % of control

NCC1OC(n2ccc(=O)[nH]c2=O)CC1O (configuration not stated)
inactive: dose: 25.0 mg/kg/injection, schedule: Q04DX002 (ip), vehicle: saline 93 % of control | dose: 50.0 mg/kg/injection, schedule: Q04DX002 (ip), vehicle: saline 101 % of control | dose: 100.0 mg/kg/injection, schedule: Q04DX002 (ip), vehicle: saline 108 % of control

COc1cc2ccc(CCNCc3ccccc3)cc2cc1OC
inactive: dose: 25.0 mg/kg/injection, schedule: Q01DX009 (ip), vehicle: saline 97 % of control | dose: 50.0 mg/kg/injection, schedule: Q01DX009 (ip), vehicle: saline 91 % of control | [1] 90 % of control | [2] 87 % of control

CCOC(=O)CC(N)C(=O)OCC (configuration not stated)
inactive: [1] 98 % of control | [3] 99 % of control | [2] 88 % of control | [4] 95 % of control | [5] 100 % of control | [6] 93 % of control | dose: 400.0 mg/kg/injection, schedule: Q01DX009 (ip), vehicle: saline 97 % of control | [7] 87 % of control | [8] 102 % of control

CC[N+](C)(CC)CCNC(=O)Nc1ccc(C)c(NC(=O)NCC[N+](C)(CC)CC)c1
inactive: dose: 1.56 mg/kg/injection, schedule: Q01DX009 (ip), vehicle: saline 97 % of control | dose: 3.12 mg/kg/injection, schedule: Q01DX009 (ip), vehicle: saline 95 % of control | dose: 3.12 mg/kg/injection, schedule: Q04DX002 (ip), vehicle: saline 90 % of control

O=C(OCC(Cl)(Cl)Cl)c1ccc(Cl)cc1
inactive: dose: 100.0 mg/kg/injection, schedule: Q04DX002 (ip), vehicle: other 97 % of control | dose: 200.0 mg/kg/injection, schedule: Q04DX002 (ip), vehicle: other 97 % of control | dose: 400.0 mg/kg/injection, schedule: Q04DX002 (ip), vehicle: other 97 % of control

O=C1CCCCC1Nc1ccc(Cl)cc1 (configuration not stated)
inactive: [9] 100 % of control | [10] 95 % of control | [11] 95 % of control

CCOc1ccn(C2OC(COC(C)=O)C(OC3OC(COC(C)=O)C(OC(C)=O)C(OC(C)=O)C3OC(C)=O)C(OC(C)=O)C2OC(C)=O)c(=O)n1 (configuration not stated)
inactive: dose: 22.5 mg/kg/injection, schedule: Q01DX001 (ip), vehicle: carboxymethylcellulose (CMC) 120 % of control | dose: 45.0 mg/kg/injection, schedule: Q01DX001 (ip), vehicle: carboxymethylcellulose (CMC) 103 % of control | dose: 90.0 mg/kg/injection, schedule: Q01DX001 (ip), vehicle: carboxymethylcellulose (CMC) 100 % of control | dose: 180.0 mg/kg/injection, schedule: Q01DX001 (ip), vehicle: carboxymethylcellulose (CMC) 100 % of control

O=C1C=CC(=O)C2=C1C1c3ccccc3C2([N+](=O)[O-])c2ccccc21
inactive: [12] 100 % of control | [3] 105 % of control | [13] 92 % of control | [5] 97 % of control | [6] 97 % of control | [14] 100 % of control | [7] 102 % of control | [8] 102 % of control

Cc1coc(NS(=O)(=O)c2ccc(N=Nc3c(N)[nH]c(=S)[nH]c3=O)cc2)c1C
inactive: [15] 113 % of control | [16] 107 % of control | [17] 101 % of control

COc1ccc(OC)c(CC=O)c1
inactive: dose: 100.0 mg/kg/injection, schedule: Q04DX003 (ip), vehicle: alcohol 97 % of control | dose: 200.0 mg/kg/injection, schedule: Q04DX003 (ip), vehicle: alcohol 101 % of control | dose: 400.0 mg/kg/injection, schedule: Q04DX003 (ip), vehicle: alcohol 103 % of control

O=C(Nc1cccc(C(F)(F)F)c1)Nc1cc([N+](=O)[O-])ccc1Cl
inactive: dose: 50.0 mg/kg/injection, schedule: Q01DX009 (ip), vehicle: Klucel (hydroxypropylcellulose) (HPC) 96 % of control | [12] 97 % of control and 108 % of control | [13] 89 % of control | [14] 88 % of control

Cc1c(NC(C)C)ccc(NC(C)C)c1C
inactive: dose: 100.0 mg/kg/injection, schedule: Q04DX002 (sc), vehicle: olive oil, sesame oil, peanut oil 100 % of control | dose: 200.0 mg/kg/injection, schedule: Q04DX002 (sc), vehicle: olive oil, sesame oil, peanut oil 100 % of control

O=S(O)c1ccc2cc(O)c(S(=O)O)cc2c1
inactive: [15] 95 % of control | [18] 95 % of control | [16] 97 % of control | [19] 95 % of control | [17] 97 % of control | dose: 400.0 mg/kg/injection, schedule: Q01DX009 (ip), vehicle: saline with Tween-80 92 % of control

COC(=O)C1Cc2ccccc2/C1=N\O (configuration not stated)
inactive: [20] 94 % of control | [18] 94 % of control | [19] 94 % of control

O=C(c1ccccc1)N1CCCCC1
inactive: [1] 95 % of control | [2] 95 % of control | [4] 95 % of control | [6] 94 % of control

[NH-]C(CC(N)=O)C(=O)O.[NH-]C(CC(N)=O)C(=O)O.[Pd+2] (configuration not stated)
inactive: [20] 93 % of control | [18] 101 % of control | dose: 100.0 mg/kg/injection, schedule: Q04DX002 (ip), vehicle: saline with Tween-80 93 % of control | [19] 108 % of control | dose: 200.0 mg/kg/injection, schedule: Q04DX002 (ip), vehicle: saline with Tween-80 97 % of control

CC1CC[N-]CC1.CC1CC[N-]CC1.CC1CC[N-]CC1.[Cl][Cr]([Cl])[Cl]
inactive: dose: 100.0 mg/kg/injection, schedule: Q04DX003 (ip), vehicle: other 98 % of control | dose: 200.0 mg/kg/injection, schedule: Q04DX003 (ip), vehicle: other 95 % of control | dose: 400.0 mg/kg/injection, schedule: Q04DX003 (ip), vehicle: other 97 % of control

Nc1ncccc1C(=O)O
inactive: dose: 62.5 mg/kg/injection, schedule: Q01DX010 (ip), vehicle: saline 96 % of control and 100 % of control | [9] 101 % of control | dose: 125.0 mg/kg/injection, schedule: Q01DX010 (ip), vehicle: saline 93 % of control and 109 % of control | [10] 98 % of control | dose: 250.0 mg/kg/injection, schedule: Q01DX010 (ip), vehicle: saline 102 % of control and 90 % of control | [11] 95 % of control | dose: 500.0 mg/kg/injection, schedule: Q01DX010 (ip), vehicle: saline 100 % of control and 90 % of control

N#CC1(C(O)c2ccccc2)C=Cc2ccccc2N1C(=O)c1ccccc1 (configuration not stated)
inactive: dose: 100.0 mg/kg/injection, schedule: Q01DX001 (ip), vehicle: steriod suspending solution 98 % of control | dose: 400.0 mg/kg/injection, schedule: Q01DX001 (ip), vehicle: steriod suspending solution 95 % of control

COc1cc([N+](=O)[O-])c2nc(Cl)ccc2c1
inactive: [9] 100 % of control | [10] 88 % of control | [11] 97 % of control

Cc1cccc2c3c([nH]c12)CCSC3
inactive: dose: 100.0 mg/kg/injection, schedule: Q04DX003 (ip), vehicle: saline with Tween-80 108 % of control | dose: 200.0 mg/kg/injection, schedule: Q04DX003 (ip), vehicle: saline with Tween-80 105 % of control | dose: 400.0 mg/kg/injection, schedule: Q04DX003 (ip), vehicle: saline with Tween-80 111 % of control

COC(=O)c1cc(C)cc(O)c1C
inactive: [9] 104 % of control | [10] 98 % of control | [11] 104 % of control
